Tests used:
Type in all cases: cell-based
[1] = target: PPARγ (Homo sapiens (Human), UniProt P37231); assay: Nuclear receptor reporter gene (luciferase) screening model, PPARγ activation in HepG2 cells; conditions: for Experiment results (relative activation fold) PPARγ: HepG2, solvent control = 1; for EC50: HepG2 reporter gene, 6 concentrations; for activation effect on PPARγ receptor (in words): screening results
Description: (§1) Using a reporter gene method, a screening model for screening a nuclear receptor agonist in living cells is designed on the basis of the principal that a nuclear receptor can activate transcription of its downstream gene after being activated. A reporter gene plasmid is constructed, in which the DNA binding sequence for the nuclear receptor (NRE) is inserted at the upstream of a luciferase gene, such that the expression of the luciferase gene is regulated by the nuclear receptor. The reporter gene plasmid is transferred into a cell simultaneously with the nuclear receptor. The nuclear receptor will be activated when a nuclear receptor agonist presents in the cell culture medium. The receptor being activated can induce the expression of the luciferase gene, while the amount of generated luciferase can be determined with its luminescent substrate. In this way, the intensity of activation of the nuclear receptor by the compound can be determined by observing the luminescence intensity. For the calibration of the experimental error caused by factors such as transfection efficiency, amount of inoculated cells, toxicity of the compound, etc, a GFP plasmid is co-transfected simultaneously as the internal reference. In the analysis of the experimental results, the luminescent values tested for all wells are calibrated with GFP values. The experimental results are expressed as relative activation fold, with a value of 1 for the solvent control. The greater the fold is, the higher the activation capacity represents.
(§2) The detailed procedure is described as follows:
(§3) Hepatocarcinoma cell HepG2 (from ATCC, American Type Culture Collection) was cultured in a DMEM medium supplemented with 10% heat-inactivated fetal bovine serum (FBS, Invitogen, Grand Island, N.Y., USA) in a T-75 culture flask (Greiner, Germany) placed in a 5% CO2 incubator at 37° C. and 100% relative humidity.
(§4) On the next day, when the cells in the 96-well culture plate grew up to 50-80% confluency, cell transfection was performed. The cell co-transfection system comprised FuGene6 transfection agent (Roche Molecular Biochemicals, Indianapolis, Ind., U.S.A.) and 60 ng DNA (10 ng hRXR, 10 ng pCMV βGal, 10 ng nuclear receptor expression plasmid RXR/PPARα, δ, γ, 30 ng GFP fluorescence reporter gene plasmid, respectively).
(§5) The cell culture medium was discarded immediately after 24 hours of transfection and replaced by 200 μl fresh DMEM medium containing the test medicament (with 10% FBS treated by activated carbon). The final concentration gradients of the test medicament were 10 μM, 5 μM, 1 μM, 0.1 μM, 0.01 μM, 0.001 μM, and 0 μM. 0.05 μM 2-bromostearic acid (purchased from Sigma, USA) was used as the positive control. The final concentration of DMSO in each well was 0.1%.
(§6) After 24 h treatment with the medicament, the cells were lysed with a lysis solution (Cell Culture Lysis buffer, Promega) and centrifuged, and the supernatant was collected. The supernatant was reacted with a fluorescence assay kit (Promega) and counted by a fluorometer (Ascent Fluoroskan FL reader, Thermo Labsystems, Finland), and the relative intensity of luciferase was determined. For the assay of the β-galactosidase activity used in the experiment as the internal reference (the internal reference for calibrating the transfection efficiency), 50 μl of the supernatant was transferred into a fresh microplate, treated with a Promega kit, and the value was read with a microplate reader at a wavelength of 405 nm (Bio-tech Instruments Inc., Winooski, Vt., USA) (Sauerberg, P.; Olsen, G. S.; Jeppesen, L.; Mogensen, J. P. et al., J. Med. Chem., 2007, 50, 1495-1503).
(§7) In the present screening protocol, it was calculated according to the activation of the receptor by the sample at 6 different concentrations.
(§8) The concentration-activity profile of the effects of a compound was fitted by carrying out iterative computation according to the following formula, and corresponding EC50 was calculated: […]

[2] = target: PPARα (Homo sapiens (Human), UniProt Q07869); assay: Nuclear receptor reporter gene (luciferase) screening model, PPARα activation in HepG2 cells; conditions: for Experiment results (relative activation fold) PPARα: HepG2, solvent control = 1; for EC50: HepG2 reporter gene, 6 concentrations; for activation effect on PPARα receptor (in words): screening results
Description: as §1, §2, §3, §4, §5, §6, §7, §8

[3] = target: PPARδ (Homo sapiens (Human), UniProt Q03181); assay: Nuclear receptor reporter gene (luciferase) screening model, PPARδ activation in HepG2 cells; conditions: for Experiment results (relative activation fold) PPARδ: HepG2, solvent control = 1; for EC50: HepG2 reporter gene, 6 concentrations; for activation effect on PPARδ receptor (in words): screening results
Description: as §1, §2, §3, §4, §5, §6, §7, §8

Chain of PPARα (Q07869 whole entry, species assumed): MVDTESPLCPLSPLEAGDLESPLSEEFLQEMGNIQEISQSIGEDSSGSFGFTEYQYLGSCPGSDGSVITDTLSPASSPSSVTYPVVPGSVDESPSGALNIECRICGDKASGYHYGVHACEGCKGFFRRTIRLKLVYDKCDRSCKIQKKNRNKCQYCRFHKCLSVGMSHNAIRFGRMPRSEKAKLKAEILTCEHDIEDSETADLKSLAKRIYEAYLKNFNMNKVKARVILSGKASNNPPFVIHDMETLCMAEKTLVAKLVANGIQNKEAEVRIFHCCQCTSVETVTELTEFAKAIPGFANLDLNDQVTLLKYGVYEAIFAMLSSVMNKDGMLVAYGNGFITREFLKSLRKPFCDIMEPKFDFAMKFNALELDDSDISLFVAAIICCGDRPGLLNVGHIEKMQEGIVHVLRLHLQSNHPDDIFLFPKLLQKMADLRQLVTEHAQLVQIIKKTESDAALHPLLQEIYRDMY
Chain of PPARα (P19793 whole entry partner, species assumed): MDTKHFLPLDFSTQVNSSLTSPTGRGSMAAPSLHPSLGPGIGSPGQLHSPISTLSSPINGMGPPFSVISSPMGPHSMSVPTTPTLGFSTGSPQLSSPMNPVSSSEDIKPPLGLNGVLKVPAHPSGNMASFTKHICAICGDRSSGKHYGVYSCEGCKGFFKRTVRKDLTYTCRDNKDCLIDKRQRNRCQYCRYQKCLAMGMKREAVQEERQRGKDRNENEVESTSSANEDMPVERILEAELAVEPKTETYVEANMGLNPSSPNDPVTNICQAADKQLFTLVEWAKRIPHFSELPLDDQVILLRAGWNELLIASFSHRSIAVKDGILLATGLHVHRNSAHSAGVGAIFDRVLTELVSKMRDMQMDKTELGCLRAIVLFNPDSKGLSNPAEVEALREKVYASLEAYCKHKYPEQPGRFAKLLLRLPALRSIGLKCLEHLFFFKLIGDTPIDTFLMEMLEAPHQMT
Chain of PPARδ (Q03181 whole entry, species assumed): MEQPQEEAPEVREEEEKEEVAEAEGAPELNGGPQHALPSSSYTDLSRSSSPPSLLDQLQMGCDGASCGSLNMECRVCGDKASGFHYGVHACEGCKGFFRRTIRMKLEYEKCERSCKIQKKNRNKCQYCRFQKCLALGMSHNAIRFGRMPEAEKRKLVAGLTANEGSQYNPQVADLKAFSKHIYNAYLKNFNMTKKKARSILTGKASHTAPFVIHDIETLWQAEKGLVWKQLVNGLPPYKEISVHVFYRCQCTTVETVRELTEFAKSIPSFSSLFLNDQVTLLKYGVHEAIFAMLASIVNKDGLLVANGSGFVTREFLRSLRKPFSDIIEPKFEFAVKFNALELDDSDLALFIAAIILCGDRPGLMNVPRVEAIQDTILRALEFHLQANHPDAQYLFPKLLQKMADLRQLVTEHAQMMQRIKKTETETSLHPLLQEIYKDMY
Chain of PPARδ (P19793 whole entry partner, species assumed): as the sequence (P19793 whole entry partner, species assumed) above
Chain of PPARγ (P37231 whole entry, species assumed): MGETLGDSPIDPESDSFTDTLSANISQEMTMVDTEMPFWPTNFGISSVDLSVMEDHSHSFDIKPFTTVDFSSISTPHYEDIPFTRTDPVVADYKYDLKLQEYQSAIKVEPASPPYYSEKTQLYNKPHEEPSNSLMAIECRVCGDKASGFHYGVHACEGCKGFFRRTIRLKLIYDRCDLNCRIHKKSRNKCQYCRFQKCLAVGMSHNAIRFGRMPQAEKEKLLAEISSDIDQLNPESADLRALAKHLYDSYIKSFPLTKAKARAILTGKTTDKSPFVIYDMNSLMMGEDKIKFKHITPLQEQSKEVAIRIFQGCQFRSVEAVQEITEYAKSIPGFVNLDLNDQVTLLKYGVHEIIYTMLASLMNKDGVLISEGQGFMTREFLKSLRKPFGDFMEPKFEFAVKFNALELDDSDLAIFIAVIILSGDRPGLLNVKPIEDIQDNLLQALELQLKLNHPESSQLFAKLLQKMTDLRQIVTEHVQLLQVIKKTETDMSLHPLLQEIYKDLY
Chain of PPARγ (P19793 whole entry partner, species assumed): as the sequence (P19793 whole entry partner, species assumed) above

Row | Structure (SMILES) | Experiment results (relative activation fold) PPARγ ([1]; 0.001 uM) | Experiment results (relative activation fold) PPARγ ([1]; 0.01 uM) | Experiment results (relative activation fold) PPARγ ([1]; 0.1 uM) | Experiment results (relative activation fold) PPARγ ([1]; 1 uM) | Experiment results (relative activation fold) PPARγ ([1]; 5 uM) | Experiment results (relative activation fold) PPARγ ([1]; 10 uM) | EC50 [1] | Experiment results (relative activation fold) PPARα ([2]; 0.001 uM) | Experiment results (relative activation fold) PPARα ([2]; 0.01 uM) | Experiment results (relative activation fold) PPARα ([2]; 0.1 uM) | Experiment results (relative activation fold) PPARα ([2]; 1 uM) | Experiment results (relative activation fold) PPARα ([2]; 5 uM) | Experiment results (relative activation fold) PPARα ([2]; 10 uM) | EC50 [2] | Experiment results (relative activation fold) PPARδ ([3]; 0.001 uM) | Experiment results (relative activation fold) PPARδ ([3]; 0.01 uM) | Experiment results (relative activation fold) PPARδ ([3]; 0.1 uM) | Experiment results (relative activation fold) PPARδ ([3]; 1 uM) | Experiment results (relative activation fold) PPARδ ([3]; 5 uM) | Experiment results (relative activation fold) PPARδ ([3]; 10 uM) | further results
1 | CCc1cc(OCCc2nc(-c3ccc(F)cc3)oc2C)ccc1CCC(=O)O [Compound 1, 3-(2-ethyl-4-{2-[2-(4-fluorophenyl)-5-methyloxazol-4-yl]ethoxyl}phenyl)propionic acid] | 1.09 fold | 1.21 fold | 1.26 fold | 1.45 fold | 1.62 fold | 2.01 fold | 13 nM | 1.00 fold | 1.08 fold | 1.12 fold | 1.36 fold | 1.35 fold | 1.72 fold | 29 nM | 1.07 fold | 1.12 fold | 1.19 fold | 1.40 fold | 1.33 fold | 1.80 fold | activation effect on PPARγ receptor (in words) [1]: better activation effects; activation effect on PPARα receptor (in words) [2]: better activation effects; EC50 [3]: 29 nM; activation effect on PPARδ receptor (in words) [3]: better activation effects
2 | CCc1cc(OCCc2nc(-c3ccc(C(F)(F)F)cc3)oc2C)ccc1CCC(=O)O [Compound 3] | 1.10 fold | 1.30 fold | 1.32 fold | 1.56 fold | 1.78 fold | 2.06 fold | 5 nM | 0.99 fold | 1.11 fold | 1.19 fold | 1.28 fold | 1.33 fold | 1.79 fold | 4 nM | 1.11 fold | 1.17 fold | 1.22 fold | 1.34 fold | 1.50 fold | 1.94 fold | activation effect on PPARγ receptor (in words) [1]: better activation effects; activation effect on PPARα receptor (in words) [2]: better activation effects; EC50 [3]: < 1 nM; activation effect on PPARδ receptor (in words) [3]: better activation effects
3 | CCc1cc(OCCc2nc(-c3ccc(C)cc3)oc2C)ccc1CCC(=O)O [Compound 5] | 1.98 fold | 2.99 fold | 3.75 fold | 3.95 fold | 3.82 fold | 4.11 fold | 4 nM | 1.33 fold | 1.45 fold | 1.37 fold | 1.58 fold | 1.98 fold | 1.91 fold | 1180 nM | 1.57 fold | 2.44 fold | 3.61 fold | 3.69 fold | 3.57 fold | 4.64 fold | activation effect on PPARγ receptor (in words) [1]: better activation effects; activation effect on PPARα receptor (in words) [2]: better activation effects; EC50 [3]: 7 nM; activation effect on PPARδ receptor (in words) [3]: better activation effects
4 | CCc1cc(OCCc2coc(-c3ccc(C(F)(F)F)cc3)n2)ccc1CCC(=O)O [Compound 2] | 1.09 fold | 1.26 fold | 1.26 fold | 1.49 fold | 1.73 fold | 2.28 fold | 692 nM | 1.01 fold | 1.06 fold | 1.16 fold | 1.30 fold | 1.38 fold | 1.82 fold | 5500 nM | 1.02 fold | 1.17 fold | 1.17 fold | 1.34 fold | 1.45 fold | 1.99 fold | EC50 [3]: < 1 nM

More lines, in order of falling EC50 [1], values ahead:

Row | Experiment results (relative activation fold) PPARγ ([1]; 0.001 uM) | Experiment results (relative activation fold) PPARγ ([1]; 0.01 uM) | Experiment results (relative activation fold) PPARγ ([1]; 0.1 uM) | Experiment results (relative activation fold) PPARγ ([1]; 1 uM) | Experiment results (relative activation fold) PPARγ ([1]; 5 uM) | Experiment results (relative activation fold) PPARγ ([1]; 10 uM) | EC50 [1] | Experiment results (relative activation fold) PPARα ([2]; 0.001 uM) | Experiment results (relative activation fold) PPARα ([2]; 0.01 uM) | Experiment results (relative activation fold) PPARα ([2]; 0.1 uM) | Experiment results (relative activation fold) PPARα ([2]; 1 uM) | Experiment results (relative activation fold) PPARα ([2]; 5 uM) | Experiment results (relative activation fold) PPARα ([2]; 10 uM) | EC50 [2] | Experiment results (relative activation fold) PPARδ ([3]; 0.001 uM) | Experiment results (relative activation fold) PPARδ ([3]; 0.01 uM) | Experiment results (relative activation fold) PPARδ ([3]; 0.1 uM) | Experiment results (relative activation fold) PPARδ ([3]; 1 uM) | Experiment results (relative activation fold) PPARδ ([3]; 5 uM) | Experiment results (relative activation fold) PPARδ ([3]; 10 uM) | Structure (SMILES) | further results
5 | 1.09 fold | 1.51 fold | 3.20 fold | 4.34 fold | 5.04 fold | 4.26 fold | 47 nM | 1.25 fold | 1.17 fold | 1.32 fold | 1.56 fold | 1.63 fold | 1.81 fold | 1150 nM | 1.18 fold | 1.40 fold | 2.25 fold | 3.38 fold | 4.08 fold | 3.92 fold | CCc1cc(OCCc2nc(-c3ccc(C(N)=O)cc3)oc2C)ccc1CCC(=O)O [Compound 9] | EC50 [3]: 331 nM
6 | 1.29 fold | 1.86 fold | 3.30 fold | 3.80 fold | 4.08 fold | 4.35 fold | 25 nM | 1.15 fold | 1.32 fold | 1.42 fold | 1.55 fold | 1.66 fold | 1.94 fold | 2880 nM | 1.66 fold | 2.72 fold | 2.99 fold | 3.70 fold | 3.60 fold | 3.38 fold | CCc1cc(OCCc2nc(-c3ccc([N+](=O)[O-])cc3)oc2C)ccc1CCC(=O)O [Compound 7] | EC50 [3]: 3 nM

From patent US9346770B2, “Compounds having activating effect on subtypes of peroxisome proliferator-activated receptors and its preparation method and uses” (ZHEJIANG HISUN PHARMACEUTICAL CO., LTD., priority 2010, dated 2016)
